Results published in patent publication US8841425B2, “Cytotoxic agents comprising new maytansinoids” (ImmunoGen, Inc., priority 2003, dated 2014).
“Also recorded” adds a separate entry of the source.

How the values were obtained:
[1] = tested on: SK-BR-3 cells; test: In vitro cytotoxicity, clonogenic assay, SK-BR-3 cells; assay type: cell-based, human; conditions: free maytansinoid, 72 hours exposure, read-out: IC50 towards SK-Br-3 cells
Experimental: (§1) The KB (ATCC CCl-17) cell line is of human epithelial origin. The SK-BR-3 (ATCC HTB-30) cell line was established from a human breast adenocarcinoma. The human colon tumor cell lines COLO 205 (ATCC CCL-222) and HT-29 (ATCC HTB 38), the human melanoma cell line A-375 (ATCC CRL 1619), the human Burkitts lymphoma cell line Ramos (ATCC CRL-1596) and the human myeloid leukemia cell line HL-60 (ATCC CCL-240) were all obtained from ATCC, Maryland. Cell lines were grown in Dulbecco's modified Eagles Medium (DMEM, Biowhittaker, Walkersville, Md.) with L-glutamine supplemented with 10% fetal bovine serum (Hyclone, Logan, Utah) and 50 μg/mL gentamycin sulfate (Life Technologies, Rockville, Md.). Cells were maintained at 36-37.5° C. in a humidified atmosphere that contained 6% CO2.
(§2) The cytotoxicity study performed used a clonogenic assay. The test cell lines were plated into 6-well culture dishes at a constant number of 1000 cells per well. […] The cultures were then fixed and stained with 0.2% crystal violet in 10% formalin/PBS and colonies were counted. Plating efficiency of non-treated cells (medium alone) was determined by dividing the number of colonies counted by the number of cells plated. Surviving fraction of cells exposed to the drugs was determined by dividing the number of colonies in wells that were exposed to the drug by the number of colonies in the control wells.

[2] = tested on: human melanoma cell line A-375; test: In vitro cytotoxicity, clonogenic assay, A-375 cells; assay type: cell-based; conditions: for IC50: free maytansinoid, 72 hours exposure, clonogenic assay, read-out: IC50 towards A-375 cells; for fold less sensitive, antigen negative A-375 cells versus COLO 205 cells: antibody-maytansinoid conjugate
Experimental: as §1
The cytotoxicity study performed used a clonogenic assay. The test cell lines were plated into 6-well culture dishes at a constant number of 1000 cells per well. Cells were incubated with varying concentrations (0 to 3 nM) of the various maytansinoids (free or conjugated to antibodies) for 72 hours. The medium was then aspirated from the plates and replaced with fresh medium. Cultures were allowed to grow, and form colonies, for a total of 7-10 days after plating. The cultures were then fixed and stained with 0.2% crystal violet in 10% formalin/PBS and colonies were counted. Plating efficiency of non-treated cells (medium alone) was determined by dividing the number of colonies counted by the number of cells plated. Surviving fraction of cells exposed to the drugs was determined by dividing the number of colonies in wells that were exposed to the drug by the number of colonies in the control wells.

[3] = tested on: human acute lymphoblastic leukemia line CEM; conditions: in vitro; cited from earlier work
[4] = tested on: L1210 cells; conditions: L1210 cells treated in vivo; cited from earlier work
[5] = tested on: human B-16 melanocarcinoma system; conditions: in vivo; cited from earlier work
[6] = tested on: L1210 mouse leukemia system; conditions: in vivo; cited from earlier work
[7] = tested on: human nasopharyngeal carcinoma cells; conditions: cited from earlier work
[8] = tested on: Lewis lung carcinoma system; conditions: in vivo; cited from earlier work
[9] = tested on: human HL-60 tumor xenografts; test: In vivo efficacy of huMy9-6-DM4 against HL-60 xenografts in SCID mice (FIG. 11); set-up: species or system mouse
Experimental: The efficacy of huMy9-6-DM4 in vivo was determined in SCID mice bearing human HL-60 tumor xenografts. HL-60 cells were injected subcutaneously and tumors were allowed to grow to an average size of 100 mm^3. Dosage is expressed as μg DM4 in the conjugate, which corresponds to an antibody dose of approximately 67 μg antibody per μg of DM4. […] The efficacy of huMy9-6-DM4 was also compared with that of huMy9-6-DM1. […] HuMy9-6-DM4 maintained the animals in complete remission (CR) for nearly sixty days, whereas animals treated with huMy9-6-DM1 relapsed after about 20 days in CR.

[10] = tested on: HT-29 human colon tumor xenografts; test: In vivo efficacy against HT-29 xenografts; set-up: species or system mouse; conditions: SCID mice, maytansinoid dose of 75 μg/kg, qd×5, intravenously
Experimental: (§3) Five-week-old female SCID mice (20 animals) were inoculated subcutaneously in the right flank with HT-29 human colon carcinoma cells (1.5×10^6 cells/mouse) in 0.1 mL of serum-free medium. The tumors were grown for 11 days to an average size of 100 mm^3. The animals were then randomly divided into four groups (5 animals per group). The first group received huC242-DM1 conjugate (DM1 dose of 75 μg/kg, qd×5) administered intravenously. The second group received huC242-DM3 conjugate (DM3 dose of 75 μg/kg, qd×5) administered intravenously. The third group received huC242-DM4 conjugate (DM4 dose of 75 μg/kg, qd×5), while a fourth group of animals served as controls and received PBS using the same treatment schedule as in groups 1-3.
The sizes of the tumors were measured twice weekly and the tumor volumes were calculated with the formula: tumor volume=½(length×width×height). The weight of the animals was also measured twice per week. The tumors in the control group of mice grew to a size of nearly 1000 mm^3 in 35 days.

[11] = tested on: COLO 205 human colon tumor xenografts; test: In vivo efficacy against COLO 205 xenografts; set-up: species or system mouse; conditions: SCID mice, maytansinoid dose of 75 μg/kg, qd×5, intravenously
Experimental: as §3, with “COLO 205” for “HT-29”
The sizes of the tumors were measured twice weekly and the tumor volumes were calculated with the formula: tumor volume=½(length×width×height). The weight of the animals was also measured twice per week. The tumors in the control group of mice grew to a size of nearly 900 mm^3 in 24 days.

[12] = tested on: antigen positive COLO 205 cells; test: In vitro cytotoxicity of antibody-maytansinoid conjugates, clonogenic assay, COLO 205 cells; assay type: cell-based, human; conditions: antibody-maytansinoid conjugate; read-out: IC50 towards antigen positive COLO 205 cells
Experimental: Conjugates of cell-binding agents with maytansinoid drugs of the invention can be evaluated for their ability to suppress proliferation of various unwanted cell lines in vitro (FIG. 6). For example, cell lines such as the human colon carcinoma line COLO 205, the human melanoma cell line A-375, the human myeloid leukemia cell line HL60 can be used for the assessment of cytotoxicity of these conjugates. Cells to be evaluated can be exposed to the compounds for 24 hours and the surviving fractions of cells measured in direct assays by known methods. IC50 values can then be calculated from the results of the assays.
The KB (ATCC CCl-17) cell line is of human epithelial origin. The SK-BR-3 (ATCC HTB-30) cell line was established from a human breast adenocarcinoma. […]
as §2, with “assay.” for “assay. The test cell lines were plated into 6-well culture dishes at a constant number of 1000 cells per well.”

Molecule: COc1cc2cc(c1Cl)N(C)C(=O)C[C@H](OC(=O)[C@H](C)N(C)C(=O)CCC(C)SSC)[C@]1(C)O[C@H]1[C@H](C)[C@@H]1C[C@@](O)(NC(=O)O1)[C@H](OC)/C=C/C=C(\C)C2 (some centres unmarked) [4c, N^2′-deacetyl-N^2′-(4-methyldithio-1-oxopentyl)maytansine]
- IC50 [1]: 0.007 nM
- IC50 [2]: 0.015 nM

Molecule: COc1cc2cc(c1Cl)N(C)C(=O)CC(OC(=O)[C@@H](C)N(C)C(=O)CCC(C)(C)SSC)C1(C)OC1C(C)C1CC(O)(NC(=O)O1)C(OC)/C=C/C=C(\C)C2 (some centres unmarked) [4e, N^2′-deacetyl-N^2′-(4-methyl-4-methyldithio-1-oxopentyl)maytansine]
- IC50 [1]: 0.009 nM
- IC50 [2]: 0.032 nM

Molecule: COc1cc2cc(c1Cl)N(C)C(=O)C[C@H](OC(=O)[C@H](C)N(C)C(C)=O)[C@]1(C)O[C@H]1[C@H](C)[C@@H]1C[C@@](O)(NC(=O)O1)[C@H](OC)/C=C/C=C(\C)C2 [maytansine, Maytansine]
- inhibitory concentration, as low as [3]: ≥ 10^−7 μg/ml
- cells accumulating in mitosis [4]: 67%
- inhibitory activity [5]: significant inhibitory activity
- inhibitory activity [6]: significant inhibitory activity
- inhibition of in vitro growth [7]: active inhibitor
- inhibitory activity [8]: significant inhibitory activity

B1: huMy9-6-DM1: huMy9-6 conjugate of a previously described maytansinoid (DM1) (conjugate, chains of the INN, looked up)
VH: QVQLVESGGGVVQPGRSLRLSCAASGFTFSSFGMHWVRQAPGKGLEWVAYISSGSFTIYYADSVKGRFTISRDNSKNTLYLQMNSLRAEDTAVYYCARMRKGYAMDYWGQGTLVTVSS
VL: DVVMTQSPLSLPVTLGQPASISCRSSQIIIHSDGNTYLEWFQQRPGQSPRRLIYKVSNRFSGVPDRFSGSGSGTDFTLKISRVEAEDVGVYYCFQGSHVPHTFGQGTKVEIK
modifications: DM1 maytansinoid conjugate
- time in complete remission (CR) ([9]; SCID mice, i.v. once a day for 5 days): about 20 days
- tumor growth delay ([9]; subcutaneous HL-60 xenograft, equivalent dose, FIG. 11): about 48 days

B2: huC242-DM3: huC242 antibody linked to DM3 (4a), on the average 3.2-3.5 DM3 molecules per antibody molecule (conjugate, chains of the INN, looked up)
VH: QVQLVQSGAEVKKPGETVKISCKASDYTFTYYGMNWVKQAPGQGLKWMGWIDTTTGEPTYAQKFQGRIAFSLETSASTAYLQIKSLKSEDTATYFCARRGPYNWYFDVWGQGTTVTVSS
VL: DIVMTQSPLSVPVTPGEPVSISCRSSKSLLHSNGNTYLYWFLQRPGQSPQLLIYRMSNLVSGVPDRFSGSGSGTAFTLRISRVEAEDVGVYYCLQHLEYPFTFGPGTKLELK
modifications: DM3 maytansinoid conjugate
notes: huC242 antibody linked to DM3 (4a), on the average 3.2-3.5 DM3 molecules per antibody molecule
- tumor growth delay [10]: 28 days
- complete tumor regression lasting [11]: 45 days
- fold less sensitive, antigen negative A-375 cells versus COLO 205 cells [2]: about 500 fold
- IC50 [12]: 0.013 nM

B3: huC242-DM4: huC242 antibody linked to DM4 (4b), on the average 3.2-3.5 DM4 molecules per antibody molecule (conjugate, chains of the INN, looked up)
VH: QVQLVQSGAEVKKPGETVKISCKASDYTFTYYGMNWVKQAPGQGLKWMGWIDTTTGEPTYAQKFQGRIAFSLETSASTAYLQIKSLKSEDTATYFCARRGPYNWYFDVWGQGTTVTVSS
VL: DIVMTQSPLSVPVTPGEPVSISCRSSKSLLHSNGNTYLYWFLQRPGQSPQLLIYRMSNLVSGVPDRFSGSGSGTAFTLRISRVEAEDVGVYYCLQHLEYPFTFGPGTKLELK
modifications: DM4 maytansinoid conjugate
notes: huC242 antibody linked to DM4 (4b), on the average 3.2-3.5 DM4 molecules per antibody molecule
- tumor growth delay [10]: 36 days
- tumor response (regression, cures) [11]: cures of all the treated mice; also recorded: cures of all the treated animals
- fold less sensitive, antigen negative A-375 cells versus COLO 205 cells [2]: about 500 fold
- IC50 [12]: 0.011 nM
